Results as given in ChEMBL document CHEMBL1201862, “PubChem BioAssay data set” (2004).
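Compound exposure: 48 hours, 5 concentrations, 96-well plates. GI50 = concentration required for 50% inhibition of growth.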 Calls of active or inactive are those of the source. No stated cut-off is given here; in the data, active = GI50 up to about 1.1 µM and inactive = higher.

Experiments:
Assay in all cases: NCI tumour cell line growth inhibition, 48 h
[1] = tested on: SK-MEL-2
[2] = tested on: NCI-H23
[3] = tested on: T47D
[4] = tested on: HCT-15
[5] = tested on: DU-145
[6] = tested on: COLO 205
[7] = tested on: SNB-75
[8] = tested on: SK-MEL-5
[9] = tested on: MDA-MB-231
[10] = tested on: NCI/ADR-RES
[11] = tested on: MDA-MB-435
[12] = tested on: ACHN
[13] = tested on: MCF7
[14] = tested on: BT-549
[15] = tested on: NCI-H226
[16] = tested on: 786-0
[17] = tested on: OVCAR-4
[18] = tested on: SN12C
[19] = tested on: OVCAR-5
[20] = tested on: HCT-116
[21] = tested on: SR
[22] = tested on: RPMI-8226
[23] = tested on: HT-29
[24] = tested on: KM12
[25] = tested on: SW-620
[26] = tested on: UO-31
[27] = tested on: SF-539
[28] = tested on: UACC-62
[29] = tested on: UACC-257
[30] = tested on: OVCAR-3
[31] = tested on: OVCAR-8
[32] = tested on: RXF 393
[33] = tested on: M14
[34] = tested on: A549
[35] = tested on: HCC 2998
[36] = tested on: SNB-19
[37] = tested on: LOX IMVI
[38] = tested on: NCI-H460
[39] = tested on: EKVX
[40] = tested on: SK-MEL-28
[41] = tested on: HOP-92
[42] = tested on: CCRF-CEM
[43] = tested on: HOP-62
[44] = tested on: MDA-N
[45] = tested on: K562
[46] = tested on: U-251
[47] = tested on: CAKI-1
[48] = tested on: SF-295
[49] = tested on: PC-3
[50] = tested on: MOLT-4
[51] = tested on: A498
[52] = tested on: IGROV-1
[53] = tested on: SF-268
[54] = tested on: TK-10
[55] = tested on: SK-OV-3
[56] = tested on: Malme-3M
[57] = tested on: Hs-578T
[58] = tested on: NCI-H522

## Cc1cc(OP2(=O)NCc3ccncc3O2)ccc1Cl (centres undefined)
[1]
  GI50: > 100 µM (inactive)
[2]
  GI50: > 100 µM (inactive)
[3]
  GI50: > 100 µM (inactive)
[4]
  GI50: > 100 µM
[5]
  GI50: > 100 µM (inactive)
[6]
  GI50: > 100 µM (inactive)
[7]
  GI50: > 100 µM (inactive)
[8]
  GI50: > 100 µM (inactive)
[9]
  GI50: > 100 µM (inactive)
[10]
  GI50: > 100 µM (inactive)
[11]
  GI50: > 100 µM (inactive)
[12]
  GI50: > 100 µM (inactive)
[13]
  GI50: > 100 µM (inactive)
[14]
  GI50: > 100 µM (inactive)
[15]
  GI50: > 100 µM (inactive)
[16]
  GI50: > 100 µM (inactive)
[17]
  GI50: > 100 µM (inactive)
[18]
  GI50: > 100 µM (inactive)
[19]
  GI50: > 100 µM (inactive)
[20]
  GI50: > 100 µM (inactive)
[21]
  GI50: > 100 µM (inactive)
[22]
  GI50: > 100 µM (inactive)
[23]
  GI50: > 100 µM (inactive)
[24]
  GI50: > 100 µM (inactive)
[25]
  GI50: > 100 µM (inactive)
[26]
  GI50: > 100 µM (inactive)
[27]
  GI50: > 100 µM (inactive)
[28]
  GI50: > 100 µM (inactive)
[29]
  GI50: > 100 µM (inactive)
[30]
  GI50: > 100 µM (inactive)
[31]
  GI50: > 100 µM (inactive)
[32]
  GI50: > 100 µM (inactive)
[33]
  GI50: > 100 µM (inactive)
[34]
  GI50: > 100 µM (inactive)
[35]
  GI50: > 100 µM (inactive)
[36]
  GI50: > 100 µM (inactive)
[37]
  GI50: > 100 µM (inactive)
[38]
  GI50: > 100 µM (inactive)
[39]
  GI50: > 100 µM (inactive)
[40]
  GI50: > 100 µM (inactive)
[41]
  GI50: > 100 µM (inactive)
[42]
  GI50: 44.5 µM (inactive)
[43]
  GI50: > 100 µM (inactive)
[44]
  GI50: > 100 µM (inactive)
[45]
  GI50: > 100 µM (inactive)
[46]
  GI50: > 100 µM (inactive)
[47]
  GI50: > 100 µM (inactive)
[48]
  GI50: > 100 µM (inactive)
[49]
  GI50: > 100 µM (inactive)
[50]
  GI50: > 100 µM (inactive)
[51]
  GI50: > 100 µM (inactive)
[52]
  GI50: > 100 µM (inactive)

## COc1ccc2[nH]cc(C(=O)C(=O)NC34CC5CC(CC(C5)C3)C4)c2c1
[1]
  GI50: 57.8 µM (inactive)
[2]
  GI50: > 72.6 µM (inactive)
[3]
  GI50: 54.1 µM (inactive)
[4]
  GI50: 9.16 µM
[5]
  GI50: 39.4 µM (inactive)
[6]
  GI50: 6.9 µM (inactive)
[7]
  GI50: 37.9 µM (inactive)
[8]
  GI50: 32.2 µM (inactive)
[9]
  GI50: 40.1 µM (inactive)
[10]
  GI50: 55.2 µM (inactive)
[11]
  GI50: 41.3 µM (inactive)
[53]
  GI50: > 61.1 µM (inactive)
[12]
  GI50: 29.4 µM (inactive)
[13]
  GI50: 10.1 µM (inactive)
[14]
  GI50: 43.3 µM (inactive)
[15]
  GI50: 22.9 µM (inactive)
[16]
  GI50: 8.09 µM (inactive)
[17]
  GI50: 29.6 µM (inactive)
[18]
  GI50: 18.9 µM (inactive)
[19]
  GI50: 35.2 µM (inactive)
[54]
  GI50: 48.8 µM (inactive)
[20]
  GI50: 20.6 µM (inactive)
[22]
  GI50: 4.69 µM (inactive)
[23]
  GI50: 2.08 µM (inactive)
[24]
  GI50: > 26.9 µM (inactive)
[25]
  GI50: 38.9 µM (inactive)
[26]
  GI50: > 100 µM (inactive)
[27]
  GI50: 14 µM (inactive)
[28]
  GI50: 23.8 µM (inactive)
[29]
  GI50: 67.5 µM (inactive)
[30]
  GI50: 8.97 µM (inactive)
[31]
  GI50: 35.6 µM (inactive)
[55]
  GI50: 73.3 µM (inactive)
[32]
  GI50: 3.22 µM (inactive)
[33]
  GI50: 13.9 µM (inactive)
[34]
  GI50: 26.2 µM (inactive)
[56]
  GI50: 46.9 µM (inactive)
[35]
  GI50: 28.1 µM (inactive)
[36]
  GI50: 53.5 µM (inactive)
[37]
  GI50: 7.21 µM (inactive)
[38]
  GI50: 7.31 µM (inactive)
[39]
  GI50: > 50.1 µM (inactive)
[40]
  GI50: 15.4 µM (inactive)
[41]
  GI50: 29.5 µM (inactive)
[42]
  GI50: 9.48 µM (inactive)
[43]
  GI50: 16.5 µM (inactive)
[44]
  GI50: 84.7 µM (inactive)
[45]
  GI50: 4.44 µM (inactive)
[46]
  GI50: 13.5 µM (inactive)
[57]
  GI50: 21.4 µM (inactive)
[47]
  GI50: > 45.4 µM (inactive)
[48]
  GI50: 6.9 µM (inactive)
[49]
  GI50: 38.3 µM (inactive)
[50]
  GI50: 2.66 µM (inactive)
[51]
  GI50: 43.8 µM (inactive)
[52]
  GI50: 58.3 µM (inactive)
[58]
  GI50: 36.7 µM (inactive)
